# Legend:
# [1] = cited from earlier work; for Log K1 with thorium(IV): ligands of increasing denticity; for log β110 with Th: literature constant used for comparison and in the refinement; for log β111 with Th: protonated 1:1 Th complex, constant included in the refinement
# [2] = cited from earlier work; for log β011: m=0, l=1, h=1 (ligand protonation), printed among stability constants for Th; for log β012: m=0, l=1, h=2 (ligand protonation); for log β013: m=0, l=1, h=3 (ligand protonation); for log β014: m=0, l=1, h=4 (ligand protonation); for log β015: m=0, l=1, h=5 (ligand protonation)
# [3] = Th(IV) spectrophotometric EDTA competition titration (solution thermodynamics); conditions: for pM value (negative logarithm of the free metal concentration): Th(IV); for log β110 (cumulative stability constant) with Th(IV): 25° C., 0.1 M KCl, 5% DMSO, βmlh for mM+lL+hH ⇄ MmLlHh
# Description: All spectrophotometric titrations were carried out with constant stirring and a blanket of argon flow in a jacketed cell connected to a recirculating water bath to maintain the temperature at 25° C. All solutions contained 0.1 M KCl with 5% DMSO (v/v), for consistency with titrations where DMSO was used to ensure solubility. The ligand was added as a 50 mM DMSO stock solution, and Th(IV) as a standardized 10 mM stock solution in nitric acid (79 mM). The HCl and KOH solutions were prepared by dilution of Dilut-It (J. T. Baker) concentrated solutions with degassed Millipore water containing 5% DMSO, to maintain the DMSO concentration constant throughout the titration. The 0.1 M HCl solution was standardized by titration of Tris using bromocresol green as an indicator, and the 0.1 M KOH solution was standardized by titration of KHP using phenolphthalein as an indicator. The glass electrode (Nova Analytics Pinnacle) used for the pH measurements was calibrated by adding 2.000 mL 0.1 M HCl (5% DMSO) to 50.0 mL 0.1 M KCl (5% DMSO), and titrating the solution to pH 11.6 with 0.1 M KOH (5% DMSO). The titration was analyzed using the program GLEE to refine for 8 and the slope. For low pH titrations, a strong acid calibration was performed by titrating 50.0 mL 0.1 M KCl with 5% (v/v) DMSO with 0.1 M HCl to pH 1.8. The data were analyzed in an Excel spreadsheet using the SOLVER function to refine for Σ° and the slope. Metrohm Brinkmann 665 Dosimat instruments were the automated burettes used to dispense the titrant, the pH meter was a Fisher Accumet AR 15, and the UV-Vis spectrometer a Hewlett-Packard 8452A. The computer program Labview was the interface from which all these components were orchestrated to run the titrations. A value of −14.20 was used as the pKw to account for the DMSO content.
# 50 mL solutions (5% DMSO) of 50 μM ligand and 20 equivalents (1 mM) each of MES, HEPES, and CHES, were titrated forward and backward between pH 1.9 and 12.7 with standardized 0.1 M KOH and 0.1 M HCl. The data points were collected at constant increments of 0.05 pH units at pH 1.9-11.5, with an equilibration time of 90-500 sec following titrant additions and a 10 min. delay between successive pH readings. Titration data above pH 11.5 was collected at constant increments of 0.10 pH units, to minimize the time at which the electrode is exposed to strongly basic conditions. All absorbance measurements used in the refinement were no more than 1.0 absorbance units. Spectra from 300-450 nm were analyzed (simultaneously) in the program pHAb. Titrations for constants reported with a standard deviation were performed in triplicate (the standard deviation is between individually refined values for each titration).
# 50 mL solutions of 50 μM ligand, 50 μM Th(IV), and 500 μM EDTA (Sigma Aldrich) or DTPA (Pharm-Eco) were titrated forward and backward with standardized 0.1 M KOH and 0.1 M HCl. The data points were collected at constant increments of 0.05 pH units, with an equilibration time of 90-500 sec following titrant additions and a 20-30 min delay between successive pH readings. All absorbance measurements used in the refinement were no more than 1.1 absorbance units. Spectra from 300-450 nm were analyzed (simultaneously) in the program pHAb. The following values for the log β for the formation of Th hydroxides were included in the refinement: [ThOH]^3+, −2.5; [Th(OH)2]^2+, −6.2; Th(OH)4, −17.4; [Th2(OH)2]^6+, −5.9; [Th2(OH)3]^5+, −6.8; [Th4(OH)8]^8+, −20.4; [Th4(OH)12]^4+, −26.6; [Th4(OH)14]^2+, −36.8; [Th4(OH)15]^+, −36.8. The following stability constants for Th with EDTA (DTPA) were also included: log β011, 10.17 (10.45); log β012, 16.28 (18.98); log β013, 18.96 (23.26); log β014, 22.46 (25.91); log β015, 22.46 (27.73); log β110, 23.2 (28.78); log β111, 25.18 (30.94). Spectra of the free ligand, refined from the ligand titrations, were set constant in the refinement as well.
# [4] = UV-Vis dye (arsenazo III) displacement kinetic experiments; type: binding; conditions: 100 mM HEPES pH 7.4, 100 mM KCl, 25° C., qualitative
# Description: Spectra were acquired on an Hewlett-Packard 8453 spectrometer at 25° C. The temperature was controlled by a recirculating water bath connected to a jacketed cell holder. Samples were measured in small volume (50 μL) quartz cuvettes with 1 cm path lengths. Solutions were buffered with 100 mM HEPES at pH 7.4 (at 25° C.) and 100 mM KCl. Complexation of the thorium and dye was performed by combining aqueous stock solutions of standardized Th^4+ in nitric acid (77.9 mM HNO3, pH 1.4, 1 mM) and purified dye (1 mM). The solution was let sit on the bench at room temperature for 30 min, diluted in buffer, and let sit at room temperature for an hour. The absorbance was monitored starting from the addition of ligand, as a solution of DMSO ligand stock solution (5 mM) and buffer (equilibrated for 15 min. beforehand). The A vs. t plots were fit with a first-order decay equation in Origin at wavelengths corresponding to the appearance of free dye (550, 560 nm) and the disappearance of thorium-dye complex (614, 669, 700 nm). The reaction with DOTA was refluxed (and stirred with a magnetic stir bar) and performed on a 3 mL scale (instead of 100 μL) in a 10 mL round-bottom flask, placed in an oil bath, and fitted with a reflux condenser. Aliquots were taken periodically and transferred to a cuvette for UV-Vis spectra acquisition. […]
# [5] = Stopped-flow UV-Vis kinetics of direct association with Th(IV); type: binding; conditions: 5 μM Th, 10-25 equivalents of ligand, 100 mM HEPES (pH 7.4), 5% DMSO; average of four experiments
# Description: The stopped-flow kinetic experiments were performed using a stopped-flow apparatus equipped with an OLis rapid-scanning monochromator 1000 and a 75 W Xe lamp. Upon electronic activation, the apparatus (powered with a gas source, in this case, Ar) mixes 100 μL of each solution in the two syringes into a mixing chamber. This mixture is flowed into a separate chamber, where the flow is stopped and UV spectra are taken. One syringe contained 10 μM Th(IV) in 77.9 mM HNO3 (pH 1.4), while the other held a solution of 50-300 μM ligand, in 200 mM HEPES (pH 8.3) and 10% DMSO. The 1:1 mixture of these solutions was 5 μM Th, 25-150 μM ligand, 100 mM HEPES (pH 7.4). […] The data were analyzed using the program SpecFit to simultaneously use the absorbance at all of the wavelengths to obtain a second-order rate constant.
# The kinetics of the direct association of L with Th(IV) have been elusive thus far due to the presence of various species in solution (as the metal ion can hydrolyze to form various species such as Th(OH)^3+, Th(OH)2^2+, Th4(OH)12^4+, and Th(OH)4, and L has many protonation states) and the small spectral change upon complexation. […] However, UV-Vis kinetics experiments using a stopped-flow apparatus and more intense light source enabled a direct and quantitative assessment of the complexation. […]
# [6] = 1 μM metal, 10 μM ligand, pH 7.4
compound,measurement,setting,value
O=C(O)CN(CCN(CCN(CC(=O)O)CC(=O)O)CC(=O)O)CCN(CC(=O)O)CC(=O)O [TTHA],Log K1 with thorium(IV),[1],31.9
O=C(O)CN(CCN(CC(=O)O)CC(=O)O)CCN(CC(=O)O)CC(=O)O [DTPA],Log K1 with thorium(IV),[1],30.34
same,log β110 with Th,[1],28.78
same,log β111 with Th,[1],30.94
same,log β011,[2],10.45
same,log β012,[2],18.98
same,log β013,[2],23.26
same,log β014,[2],25.91
same,log β015,[2],27.73
O=C(O)CN(CC(=O)O)CC(=O)O [NTA],Log K1 with thorium(IV),[1],16.9
"COCCNC(=O)c1ccc(C(=O)NCCN2CCNC(=O)c3ccc(c(O)c3O)C(=O)NCCN(CCNC(=O)c3ccc(C(=O)NCCOC)c(O)c3O)CCNC(=O)c3ccc(c(O)c3O)C(=O)NCC2)c(O)c1O [phi(2,2)moeTAM, Tren2TAM2[TAM(OMeEtN)]2]",pM value (negative logarithm of the free metal concentration),[3]; [6],40.2
same,pM greater than the pM value for DTPA,"[3]; 1 μM metal, 10 μM ligand, pH 7.4, relative to DTPA",14 orders of magnitude
same,pM greater than the pM value for ethyl-TAM,"[3]; 1 μM metal, 10 μM ligand, pH 7.4, relative to ethyl-TAM",21 orders of magnitude
same,log β110 (cumulative stability constant) with Th(IV),[3],53.7(5)
same,log β110 greater than that of DTPA,[3]; relative to DTPA (28.78),over 24 orders of magnitude
same,rate of Th(IV) complexation greater than those of DOTA and DTPA,[4],1-2 orders of magnitudes
same,second-order rate constant of complexation of Th(IV),[5],1.6(3)×10^4 M^−1 s^−1
CC(=O)CC(C)=O [Acac],Log K1 with thorium(IV),[1],7.85
O=C(O)CN(CCO)CCN(CC(=O)O)CC(=O)O [HEDTA],Log K1 with thorium(IV),[1],18.5
O=C(O)CN(CCN(CC(=O)O)CC(=O)O)CC(=O)O [EDTA],Log K1 with thorium(IV),[1],25.3
same,log β110 with Th,[1],23.2
same,log β111 with Th,[1],25.18
same,log β011,[2],10.17
same,log β012,[2],16.28
same,log β013,[2],18.96
same,log β014,[2],22.46
same,log β015,[2],22.46
"CNC(=O)c1ccc(C(=O)NCCCN(CCCCN(CCCNC(=O)c2ccc(C(=O)NC)c(O)c2O)C(=O)c2ccc(C(=O)NC)c(O)c2O)C(=O)c2ccc(C(=O)NC)c(O)c2O)c(O)c1O [3,4,3-LiMeTAM]",pM value (negative logarithm of the free metal concentration),[3]; [6],39.2
same,log β110 (cumulative stability constant) with Th(IV),[3],56.1

# — patent US9439984B2, “Macrocycles” (priority 2012, dated 2016)
